What was measured:
[1] = biological target: streptavidin (Streptomyces avidinii, UniProt P22629); conditions: association constant; cited from earlier work
[2] = biological target: T1, SAPE (Streptomyces avidinii, UniProt P22629); assay: stability of DMT protected biotin against SAPE staining after 3 hour ligation (FIG. 13); conditions: array probes after 3 hours ligation reaction, no acid treatment
[3] = biological target: T1, SAPE; assay: displacement of SAPE from desthiobiotin by biotin solution and re-staining (FIG. 15); type: binding; conditions: 1 mM biotin solution, then restaining with SAPE
Method: The next step was to displace the streptavidin-phycoerythrin conjugate bound to the desthiobiotin of the ligated A/T probes. This was done by washing the array with solution biotin (1 mM) in NaCl (150 mM) for 4 hours at room temperature. The displaced streptavidin-phycoerythrin conjugate previous bound to the desthiobiotinylated probes was then removed.
FIGS. 15(A)-15(C) contain images of sub-regions with sets of probes to test the effectiveness of binding and displacement of desthiobiotin with biotin. Specifically, the probe sets within the images are ligated with desthiobiotin labeled probes. […] Washing was also performed to remove the displaced biotin-SAPE conjugate. FIG. 15(C) contains an image after subsequent restraining with SAPE.

Chain of streptavidin (P22629 25-183, species assumed): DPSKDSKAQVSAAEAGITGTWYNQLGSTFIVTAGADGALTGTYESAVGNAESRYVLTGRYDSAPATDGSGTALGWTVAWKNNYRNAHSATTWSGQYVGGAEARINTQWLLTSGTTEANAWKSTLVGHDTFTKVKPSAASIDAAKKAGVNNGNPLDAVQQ
T1 sequence (P22629 25-183): as the sequence (P22629 25-183, species assumed) above

Compound | binding affinity with streptavidin [1] | intensity after SAPE staining [2] | displacement of SAPE stain and re-staining [3]
O=C(O)CCCC[C@@H]1SC[C@@H]2NC(=O)N[C@@H]21 [biotin] | 1e+15 M⁻¹ | extremely strong | 
C[C@@H]1NC(=O)N[C@@H]1CCCCCC(=O)O [desthiobiotin] | 5e+13 M⁻¹ |  | effectively displace and remove a labeling stain from desthiobiotin
